# Laboratory results taken from the supplement of paper PMC10307832.
# What was measured:
# Test in all cases: relative viability (nuclei count vs DMSO), 5 days (fraction); higher = more cells survive
# OSI-027 + Pemetrexed = compound: COc1cccc2cc(-c3nc([C@H]4CC[C@H](C(=O)O)CC4)n4ncnc(N)c34)[nH]c12 [OSI-027] + Nc1nc2[nH]cc(CCc3ccc(C(=O)N[C@@H](CCC(=O)O)C(=O)O)cc3)c2c(=O)[nH]1 [Pemetrexed] (partner 0.2 µM)
# Outline: (§1)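 Lung cancer cell lines were seeded in 1536-well plates and dosed by pin tool the next day, with either a single drug or a fixed anchor-drug dose combined with five library-drug doses (not always all listed) spaced in √10 steps. Five days later, one step fixed the cells and stained their nuclei (final 0.05% Triton X-100, 1% formaldehyde, 1 ug/ml Hoechst), and nuclei were counted on 4× images. Relative viability is the nuclei count in treated wells divided by the count in vehicle wells, and each value is the median of duplicate plates.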
# Vemurafenib + Bortezomib = compound: CCCS(=O)(=O)Nc1ccc(F)c(C(=O)c2c[nH]c3ncc(-c4ccc(Cl)cc4)cc23)c1F [Vemurafenib] + CC(C)C[C@H](NC(=O)[C@H](Cc1ccccc1)NC(=O)c1cnccn1)B(O)O [Bortezomib] (partner 0.002 µM)
# Outline: as §1
# Alpelisib + Foretinib = compound: Cc1nc(NC(=O)N2CCC[C@H]2C(N)=O)sc1-c1ccnc(C(C)(C)C(F)(F)F)c1 [Alpelisib] + COc1cc2c(Oc3ccc(NC(=O)C4(C(=O)Nc5ccc(F)cc5)CC4)cc3F)ccnc2cc1OCCCN1CCOCC1 [Foretinib] (partner 0.25 µM)
# Outline: as §1
# Alpelisib + Vorinostat = compound: Cc1nc(NC(=O)N2CCC[C@H]2C(N)=O)sc1-c1ccnc(C(C)(C)C(F)(F)F)c1 [Alpelisib] + O=C(CCCCCCC(=O)Nc1ccccc1)NO [Vorinostat] (partner 1 µM)
# Outline: as §1
Cell Line,relative viability (OSI-027 + Pemetrexed; first compound 0.01 µM),relative viability (OSI-027 + Pemetrexed; first compound 0.03162 µM),relative viability (OSI-027 + Pemetrexed; first compound 0.1 µM),relative viability (OSI-027 + Pemetrexed; first compound 0.3162 µM),relative viability (OSI-027 + Pemetrexed; first compound 1 µM),relative viability (Vemurafenib + Bortezomib; first compound 0.03162 µM),relative viability (Vemurafenib + Bortezomib; first compound 0.1 µM),relative viability (Vemurafenib + Bortezomib; first compound 0.3162 µM),relative viability (Vemurafenib + Bortezomib; first compound 1 µM),relative viability (Alpelisib + Foretinib; first compound 0.04 µM),relative viability (Alpelisib + Foretinib; first compound 0.1265 µM),relative viability (Alpelisib + Foretinib; first compound 0.4 µM),relative viability (Alpelisib + Foretinib; first compound 1.265 µM),relative viability (Alpelisib + Foretinib; first compound 4 µM),relative viability (Alpelisib + Vorinostat; first compound 0.04 µM),relative viability (Alpelisib + Vorinostat; first compound 0.1265 µM),relative viability (Alpelisib + Vorinostat; first compound 0.4 µM),relative viability (Alpelisib + Vorinostat; first compound 1.265 µM),relative viability (Alpelisib + Vorinostat; first compound 4 µM)
HCC-78,0.954,0.918,0.911,0.913,0.887,0.433,0.439,0.674,0.506,0.495,0.426,0.493,0.353,0.366,0.363,0.392,0.478,0.326,0.342
NCI-H2126,0.677,0.676,0.663,0.688,0.512,1.07,1.07,1.09,1.14,1.05,1.01,1.04,1.07,0.904,0.717,0.565,0.67,0.5,0.457
HCC-827,0.259,0.23,0.276,0.264,0.242,0.968,,0.765,1.16,1,1.05,0.968,0.964,0.746,0.899,0.707,0.495,0.856,0.647
NCI-H1650,0.404,0.361,0.369,0.405,0.475,0.223,,0.208,0.217,1.09,1.1,1.35,0.867,1.15,0.585,0.599,0.756,0.491,0.368
PC-14,0.136,0.149,0.149,0.139,0.191,0.728,,0.88,0.777,0.914,1.01,0.977,0.807,0.832,0.771,0.681,0.717,0.432,0.624
NCI-H1355,1.07,1.06,1,0.777,0.572,1.21,1.19,1.15,1.23,0.951,0.926,1.04,0.851,0.77,0.626,0.609,0.677,0.529,0.398
LXF-289,0.939,0.841,1.04,0.974,0.837,1.01,0.953,0.966,1.1,0.951,1,1.08,0.909,0.764,0.741,0.685,0.942,0.723,0.766
LOU-NH91,0.387,0.368,0.493,0.508,0.63,0.478,0.467,,0.534,0.933,0.853,0.81,0.738,0.754,0.936,0.785,0.823,0.715,0.556
NCI-H2405,0.854,1.01,0.922,0.85,0.448,0.925,0.995,,0.829,1.1,1,1.1,0.849,0.711,1.13,1.06,1.06,0.682,0.59
LCLC-103H,0.481,0.47,0.481,0.446,0.52,0.975,1.04,0.843,1.09,0.67,0.758,0.652,0.567,0.471,0.74,0.744,0.801,0.669,0.624
NCI-H322M,0.602,0.608,0.633,0.556,0.519,1.2,,1.43,1.2,0.909,0.867,0.927,0.619,0.678,0.897,0.962,0.954,0.733,0.634
NCI-H23,0.617,0.757,0.598,0.47,0.395,1,1.01,1.15,1.29,0.859,0.935,0.977,0.743,0.621,0.634,0.441,0.411,0.414,0.332
HCC-15,0.221,0.239,0.211,0.227,0.231,0.958,1.01,0.848,0.844,0.982,1,0.961,0.792,0.735,0.913,0.863,0.908,0.598,0.704
NCI-H1437,0.357,0.348,0.26,0.259,0.24,0.439,0.411,0.622,0.541,1.23,1.33,1.33,1.27,1.31,0.886,0.886,0.963,0.734,0.692
A-427,0.575,0.966,0.783,0.737,0.616,0.885,0.998,0.962,1.03,1.19,0.833,1.11,0.831,0.992,0.854,0.861,0.893,0.827,0.858
NCI-H1975,0.336,0.275,0.292,0.303,0.259,0.361,0.313,0.24,0.385,0.915,0.872,0.883,0.691,0.57,0.696,0.674,0.61,0.426,0.402
SK-LU-1,1.02,1.03,0.869,0.689,0.385,0.86,1.05,,1.14,0.831,0.796,0.854,0.453,0.681,0.817,0.775,0.847,0.676,0.689
